Measured values taken from patent US20260000656A1, “ANTIFUNGAL AGENTS WITH ENHANCED ACTIVITY IN ACIDIC PH” (Scynexis, Inc., priority 2017, published 2026).
≈ marks a conversion by molar mass, not a printed value. Like-named read-outs stand apart in the source and are kept apart here. Numbered stars: 1 amine (or outer) side, 2 acyl side, 3 side chain; on linkers, the order of the positions; unused ones are H or OH. Bridge positions count the residues as written; N and C are the ends. Square brackets hold non-standard residues; d marks the D form. Peptide text beside a SMILES is read from it. * marks the point of attachment. hTyr(3S-OH,4S-OH,3'-OSO3H) = N[C@H](C(=O)O)[C@H](O)[C@@H](O)c1ccc(O)c(OS(=O)(=O)O)c1; Orn(4R-OH,5R-OH) = O=C([C@H](C[C@@H](O)[C@@H](O)N[*:3])N[*:1])[*:2]; Pro(3S-OH,4S-Me) = C[C@H]1CN[C@H](C(=O)O)[C@H]1O; X1 = CCCCCOc1ccc(-c2cc(-c3ccc(C(=O)*)cc3)no2)cc1; Gln(3R-OH) = NC(=O)C[C@@H](O)[C@H](N)C(=O)O; Hyp = O=C(O)[C@@H]1C[C@@H](O)CN1

Test system: C. glabrata isolates
Assay: Broth microdilution susceptibility (CLSI M27-A3) at different medium pH
Format: cell-based, Candida glabrata
Details: for MIC range: 50% inhibition, 10 vaginal isolates; for MIC50 / MIC90 / MIC: Nakaseomyces glabratus, 24 h
Procedure: Ten strains each of C. glabrata and C. albicans vaginal isolates were tested. The strains were obtained from recent clinical trial patients with vulvovaginal candidiasis (VVC) prior to treatment. Candida strains were obtained from the Mycology Reference Library (MRL) at Case Western Reserve University School of Medicine, Ohio, United States.
Susceptibility testing was performed using a broth microdilution method, according to CLSI M27-A3 guidelines (CLSI. 2008. Reference Method for Broth Dilution Antifungal Susceptibility Testing of Yeasts; Approved Standard—Third Edition. Clinical and Laboratory Standards Institute, CLSI document M27-A3). Antifungals and concentrations tested were SCY-078 and micafungin (both at concentrations within the range of 0.015 to 8 μg/ml) and fluconazole (at concentrations within the range of 0.125 to 64 μg/ml). A 0.1-ml C. albicans and C. glabrata inoculum of 0.5-2.5×10^3 blastospores/ml in RPMI 1640 medium was added to each microdilution well. ATCC strains of Candida parapsilosis and Candida krusei QC isolates were also included concurrently to ensure quality control. Antifungal susceptibility testing was carried out for each isolate in RPMI 1640 at pH 7 (to mimic RPMI medium used in testing the susceptibility of yeast by the CLSI M-27A3 document), pH 5.7, and pH 4.5 (to mimic the pH of the vaginal cavity) by adjusting the pH of the media using NaOH or HCl. […] Agents Chemother., 43: 1383-1386 (1999).
[…] SCY-078 powder was manufactured by Avista, Laboratories, NC. Micafungin and fluconazole were sourced from LGM Pharma.

Work on `CCCCCOc1ccc(-c2cc(-c3ccc(C(=O)N[C@H]4C[C@@H](O)[C@@H](O)NC(=O)[C@@H]5[C@@H](O)[C@@H](C)CN5C(=O)[C@H]([C@H](O)CC(N)=O)NC(=O)[C@H]([C@H](O)[C@@H](O)c5ccc(O)c(OS(=O)(=O)O)c5)NC(=O)[C@@H]5C[C@@H](O)CN5C(=O)[C@H]([C@@H](C)O)NC4=O)cc3)no2)cc1` [Micafungin, reference compound] (X1-[Orn(4R-OH,5R-OH)]T[Hyp][hTyr(3S-OH,4S-OH,3'-OSO3H)][Gln(3R-OH)][Pro(3S-OH,4S-Me)]; lactam 1-C) yielded an MIC range (pH 4.5, 24 h) of 0.25 µg/mL (≈ 0.197 µM), an MIC range (pH 5.72, 24 h) of 0.25 µg/mL (≈ 0.197 µM) and an MIC range (pH 7.0, 24 h) of 0.25 to 0.5 µg/mL. For the same molecule, the MIC50 (pH 4.5) was 0.25 µg/mL (≈ 0.197 µM), the MIC90 (pH 4.5) was 0.25 µg/mL (≈ 0.197 µM) and the MIC (pH 4.5, read-out: MIC (50% inhibition), C. glabrata MRL 32075, pH 4.5, 24 hours) was 0.25 µg/mL (≈ 0.197 µM). It also gave an MIC (pH 4.5, read-out: MIC (50% inhibition), C. glabrata MRL 32232, pH 4.5, 24 hours) of 0.25 µg/mL (≈ 0.197 µM), an MIC (pH 4.5, read-out: MIC (50% inhibition), C. glabrata MRL 32626, pH 4.5, 24 hours) of 0.25 µg/mL (≈ 0.197 µM) and an MIC (pH 4.5, read-out: MIC (50% inhibition), C. glabrata MRL 32993, pH 4.5, 24 hours) of 0.25 µg/mL (≈ 0.197 µM). It also gave an MIC (pH 4.5, read-out: MIC (50% inhibition), C. glabrata MRL 33204, pH 4.5, 24 hours) of 0.25 µg/mL (≈ 0.197 µM), an MIC (pH 4.5, read-out: MIC (50% inhibition), C. glabrata MRL 33960, pH 4.5, 24 hours) of 0.25 µg/mL (≈ 0.197 µM) and an MIC (pH 4.5, read-out: MIC (50% inhibition), C. glabrata MRL 33961, pH 4.5, 24 hours) of 0.25 µg/mL (≈ 0.197 µM). For the same molecule, the MIC (pH 4.5, read-out: MIC (50% inhibition), C. glabrata MRL 34339, pH 4.5, 24 hours) was 0.25 µg/mL (≈ 0.197 µM), the MIC (pH 4.5, read-out: MIC (50% inhibition), C. glabrata MRL 34407, pH 4.5, 24 hours) was 0.25 µg/mL (≈ 0.197 µM) and the MIC (pH 4.5, read-out: MIC (50% inhibition), C. glabrata MRL 34576, pH 4.5, 24 hours) was 0.25 µg/mL (≈ 0.197 µM). For the same molecule, the MIC50 (pH 5.72) was 0.25 µg/mL (≈ 0.197 µM), the MIC90 (pH 5.72) was 0.25 µg/mL (≈ 0.197 µM) and the MIC (pH 5.72, read-out: MIC (50% inhibition), C. glabrata MRL 32075, pH 5.72, 24 hours) was 0.25 µg/mL (≈ 0.197 µM). The MIC (pH 5.72, read-out: MIC (50% inhibition), C. glabrata MRL 32232, pH 5.72, 24 hours) was 0.25 µg/mL (≈ 0.197 µM), the MIC (pH 5.72, read-out: MIC (50% inhibition), C. glabrata MRL 32626, pH 5.72, 24 hours) was 0.25 µg/mL (≈ 0.197 µM) and the MIC (pH 5.72, read-out: MIC (50% inhibition), C. glabrata MRL 32993, pH 5.72, 24 hours) was 0.25 µg/mL (≈ 0.197 µM). The MIC (pH 5.72, read-out: MIC (50% inhibition), C. glabrata MRL 33204, pH 5.72, 24 hours) was 0.25 µg/mL (≈ 0.197 µM), the MIC (pH 5.72, read-out: MIC (50% inhibition), C. glabrata MRL 33960, pH 5.72, 24 hours) was 0.25 µg/mL (≈ 0.197 µM) and the MIC (pH 5.72, read-out: MIC (50% inhibition), C. glabrata MRL 33961, pH 5.72, 24 hours) was 0.25 µg/mL (≈ 0.197 µM). It also gave an MIC (pH 5.72, read-out: MIC (50% inhibition), C. glabrata MRL 34339, pH 5.72, 24 hours) of 0.25 µg/mL (≈ 0.197 µM), an MIC (pH 5.72, read-out: MIC (50% inhibition), C. glabrata MRL 34407, pH 5.72, 24 hours) of 0.25 µg/mL (≈ 0.197 µM) and an MIC (pH 5.72, read-out: MIC (50% inhibition), C. glabrata MRL 34576, pH 5.72, 24 hours) of 0.25 µg/mL (≈ 0.197 µM). For the same molecule, the MIC50 (pH 7) was 0.25 µg/mL (≈ 0.197 µM), the MIC90 (pH 7) was 0.5 µg/mL (≈ 0.394 µM) and the MIC (pH 7, read-out: MIC (50% inhibition), C. glabrata MRL 32075, pH 7.0, 24 hours) was 0.25 µg/mL (≈ 0.197 µM). The MIC (pH 7, read-out: MIC (50% inhibition), C. glabrata MRL 32232, pH 7.0, 24 hours) was 0.5 µg/mL (≈ 0.394 µM), the MIC (pH 7, read-out: MIC (50% inhibition), C. glabrata MRL 32626, pH 7.0, 24 hours) was 0.5 µg/mL (≈ 0.394 µM) and the MIC (pH 7, read-out: MIC (50% inhibition), C. glabrata MRL 32993, pH 7.0, 24 hours) was 0.25 µg/mL (≈ 0.197 µM). It also gave an MIC (pH 7, read-out: MIC (50% inhibition), C. glabrata MRL 33204, pH 7.0, 24 hours) of 0.25 µg/mL (≈ 0.197 µM), an MIC (pH 7, read-out: MIC (50% inhibition), C. glabrata MRL 33960, pH 7.0, 24 hours) of 0.5 µg/mL (≈ 0.394 µM) and an MIC (pH 7, read-out: MIC (50% inhibition), C. glabrata MRL 33961, pH 7.0, 24 hours) of 0.25 µg/mL (≈ 0.197 µM). The MIC (pH 7, read-out: MIC (50% inhibition), C. glabrata MRL 34339, pH 7.0, 24 hours) was 0.25 µg/mL (≈ 0.197 µM), the MIC (pH 7, read-out: MIC (50% inhibition), C. glabrata MRL 34407, pH 7.0, 24 hours) was 0.25 µg/mL (≈ 0.197 µM) and the MIC (pH 7, read-out: MIC (50% inhibition), C. glabrata MRL 34576, pH 7.0, 24 hours) was 0.25 µg/mL (≈ 0.197 µM).
